# Results from patent publication US7087809B2, “Natural herbicide resistance in wheat” (Natural Genes, Inc., priority 2003, dated 2006).
# Experiments:
# Assay type in all cases: in vivo, Triticum aestivum
# [1] = tested on: wheat plants of the 64 flats (progeny of surviving plants); test: Spraying of progeny seedlings of surviving plants with glyphosate herbicide at the three-leaf stage in the greenhouse; details: 1.2 percent aqueous solution sprayed at three-leaf stage
# Excerpt: Fifteen seeds from each head of each surviving plant were next planted in 64 individual flats in a greenhouse containing a like 50/50 sandy-loam top soil/peat growing medium. A designation system was adopted which began with the initial Wheat Population Designation (e.g., W1) next followed by the plant number (e.g., −1, −2 for W1), and finally followed by the head number (e.g., h1). The wheat plants of the 64 flats were identified as follows:
# The seeds were encouraged to germinate and wheat plants emerged. At the three-leaf stage a 1.2 percent aqueous solution of glyphosate herbicide was applied to the plants by spraying. […] Remnant seeds from these 2 plants taken from heads W2-1-h10 and W2-4-h9 were planted in the greenhouse, germinated, and underwent self-pollination to increase the seeds. Plants derived from these seeds were not subjected to the glyphosate herbicide in an effort to maximize yield and to establish a germplasm base for further testing. W2-1-h10 produced six healthy plants that were designated W2-1-h10-p1-1a through -6a. The “a” designation served to specify that the generation was not treated with glyphosate herbicide. Similarly, W2-4-h9 produced 10 plants that were designated W2-4-h9-p1-1a through 10a. All plants were allowed to mature, to undergo self-pollination, and to produce seed heads. Each head was tagged to maintain a clear record of lineage. […]
# [2] = tested on: wheat selections of 'WA7824'/'Zeke' pedigree; test: Glyphosate herbicide treatment of selections grown in greenhouse flats (after field head row treatment); details: 1.2 percent by weight aqueous solution sprayed at three-leaf stage; for Number Killed by Glyphosate Herbicide Treatment / Number of Survivors of Glyphosate Herbicide Treatment: greenhouse flats
# Excerpt: The wheat seedlings arising from the germination of this planting were allowed to establish and grow to the three-leaf stage. At this stage of growth glyphosate herbicide was applied to the plants at a rate of 32 oz. per Acre. Survivors of this treatment were allowed to mature, to undergo self-pollination, and the heads from each plant were tagged, removed, and placed in individual containers to ensure a record of continuous lineage from the plants used in the increase (i.e., W2-1-h10-p1-la through 6a and W2-4-h9-p1-la through 10a). Seeds from each head removed from the surviving plants that were exposed to glyphosate herbicide in the field head row plots next were planted in flats in the greenhouse for germination and seedling establishment. The seeds from each head were planted in separate flats to maintain the integrity of each line. At the three-leaf stage, the resulting seedlings were sprayed with an aqueous 1.2 percent by weight solution of glyphosate herbicide. Surviving plants were allowed to grow to maturity, to undergo self-pollination, and to produce heads and seeds. This was done to ensure that the survivors of the glyphosate herbicide treatment also remained fertile and produced viable seeds.
# [3] = tested on: hard red spring wheat populations (W1 through W15); test: Soaking of wheat seeds in glyphosate herbicide solution, planting in herbicide-treated growing medium, count of surviving plants; details: for Surviving plants after seed treatment: seed soaking and planting; for Number of Surviving Wheat Plants: approx. 5,000 seeds
# Experimental: Preferably the wheat seeds are soaked in an aqueous solution of the herbicide. Commonly the herbicide is present in the solution in a concentration of approximately 1.5 to 6 percent by weight, and most preferably in a concentration of approximately 2 percent by weight. Commonly the wheat seeds are simply immersed in the liquid comprising the herbicide. The soaking of wheat seeds is conducted for a period of time that is sufficient for the herbicide to reach the embryos of the wheat seeds. […] The liquid comprising the herbicide can be simply provided at room temperature when the wheat seeds are in contact with the liquid and are undergoing such soaking.
# Alternatively, such screening of the resulting wheat plants for herbicide resistance can include the presence of the herbicide in the growing medium where the resulting seeds are planted. Good results are obtained in a preferred embodiment when one gallon of a solution containing the herbicide in a concentration of approximately 1.5 to 6 percent by weight is added to each 4 gallons of soil. The presence of the herbicide in the soil helps to assure that an atypical wheat seed having a harder seed coat has not given a false indication of herbicide resistance by its survival up to the point of germination.
# Some varieties have produced no surviving plants in tests to date. Some varieties have produced up to approximately 4 surviving plant per 5,000 seeds, others approximately 1 surviving plant per 5,000 seeds. The herbicide resistance of the resulting plants can be further confirmed by another contact (e.g., spraying) with the glyphosate herbicide.
# Fifteen different known and publically available hard red spring wheat populations (W1 through W15) were chosen for evaluation and screening in accordance with the process of the present invention. Each of the starting materials was believed to lack herbicide resistance that is attributable to genetic engineering. Also, each population, as all other Triticum aestivium varieties, was regarded to be highly sensitive to glyphosate herbicide during previous observations.
# Individual batches of each wheat population were initially immersed and were soaked in 2 percent aqueous solutions of glyphosate herbicide that were present at room temperature. The wheat seeds were provided in contact with the glyphosate herbicide for a period of 6 hours during which time the glyphosate herbicide reached the embryos of the seeds.
# Each wheat seed population was labeled and next was planted in a 50/50 sandy-loam top soil/peat growing medium. The wheat seeds were present in flats containing the growing medium at a depth of approximately 2 inches. The same 2 percent by weight aqueous solutions of glyphosate herbicide were poured into each growing medium containing the wheat seeds.
# The flats containing the wheat seeds next were placed in a greenhouse under ambient conditions in an effort to achieve germination. The sandy-loam top soil/peat growing medium was periodically watered in an effort to achieve near field growing conditions except for the presence of glyphosate herbicide.
# Of those that did germinate some died within the first 2 days, and only 6 of the 15 wheat populations produced any plants following the soaking in the glyphosate herbicide as reported in Table I. These 6 populations were W1 to W5 and W15. Each plant was carefully preserved and tagged in order to preserve the lineage for those that survived the exposure to the glyphosate herbicide at the seed stage.
structure (smiles),measurement,setting,value
"O=C(O)CNCP(=O)(O)O [glyphosate herbicide, N-(phosphonomethyl)glycine]",Seedlings surviving the application of glyphosate herbicide,[1]; seedlings derived from W1-2,single seedling
same,Seedlings surviving the application of glyphosate herbicide,[1]; seedlings derived from W2-4,single seedling
same,Tolerance of plants of the selections to the herbicide,[2]; all selections from field head rows,All selections generated plants that were tolerant to the herbicide
same,Number Killed by Glyphosate Herbicide Treatment,[2]; selection W2-1-h10-p16a-h2-h1,0
same,Number of Survivors of Glyphosate Herbicide Treatment,[2]; selection W2-1-h10-p16a-h2-h1,10
same,Number Killed by Glyphosate Herbicide Treatment,[2]; selection W2-1-h10-p16a-h2-h5,0
same,Number of Survivors of Glyphosate Herbicide Treatment,[2]; selection W2-1-h10-p16a-h2-h5,15
same,Number Killed by Glyphosate Herbicide Treatment,[2]; selection W2-4-h9-p13a-h2-h17,0
same,Number of Survivors of Glyphosate Herbicide Treatment,[2]; selection W2-4-h9-p13a-h2-h17,3
same,Number Killed by Glyphosate Herbicide Treatment,[2]; selection W2-4-h9-p13a-h2-h18,0
same,Number of Survivors of Glyphosate Herbicide Treatment,[2]; selection W2-4-h9-p13a-h2-h18,5
same,Germination of glyphosate herbicide-treated seeds,"[3]; approx. 75,000 seeds of 15 populations, 2 percent aqueous glyphosate, 6 hours soak, observed 10 to 15 days",failed to germinate
same,Surviving plants after seed treatment,[3]; other varieties,"approximately 1 surviving plant per 5,000 seeds"
same,Number of wheat populations (of 15) that produced any plants following the soaking,"[3]; populations W1 through W15, 2 percent aqueous glyphosate, 6 hours soak",6
same,Surviving plants after seed treatment,[3]; some varieties,"≤ 4 surviving plant per 5,000 seeds"
same,Number of Surviving Wheat Plants,"[3]; wheat population W1 ('ID377'/'WestBred 926'), 2 percent aqueous glyphosate, 6 hours soak, same solution in growing medium",4
same,Number of Surviving Wheat Plants,"[3]; wheat population W2 ('WA7824'/'Zeke'), 2 percent aqueous glyphosate, 6 hours soak, same solution in growing medium",5
same,Number of Surviving Wheat Plants,"[3]; wheat population W3 ('SLW97606'/'WestBred 926'), 2 percent aqueous glyphosate, 6 hours soak",1
same,Number of Surviving Wheat Plants,"[3]; wheat population W4 ('SLW97606'/'WestBred 936'), 2 percent aqueous glyphosate, 6 hours soak",2
same,Number of Surviving Wheat Plants,"[3]; wheat population W5 ('SLW97606'/'Zeke'), 2 percent aqueous glyphosate, 6 hours soak",1
same,Number of Surviving Wheat Plants,"[3]; wheat population W6 ('BZ692-108b'/'Calorwa'), 2 percent aqueous glyphosate, 6 hours soak",0
same,Number of Surviving Wheat Plants,"[3]; wheat population W7 ('BZ966-472w'/'Pristine'), 2 percent aqueous glyphosate, 6 hours soak",0
same,Number of Surviving Wheat Plants,"[3]; wheat population W8 ('Hank'/'BZ994-484'), 2 percent aqueous glyphosate, 6 hours soak",0
same,Number of Surviving Wheat Plants,"[3]; wheat population W9 ('MT9959'/'Hank'), 2 percent aqueous glyphosate, 6 hours soak",0
same,Number of Surviving Wheat Plants,"[3]; wheat population W10 ('McNeal'/'Parshall'), 2 percent aqueous glyphosate, 6 hours soak",0
same,Number of Surviving Wheat Plants,"[3]; wheat population W11 ('Reeder'/'Conan'), 2 percent aqueous glyphosate, 6 hours soak",0
same,Number of Surviving Wheat Plants,"[3]; wheat population W12 ('WA7899'/'Jefferson'), 2 percent aqueous glyphosate, 6 hours soak",0
same,Number of Surviving Wheat Plants,"[3]; wheat population W13 ('Alpowa'/'Zak'), 2 percent aqueous glyphosate, 6 hours soak",0
same,Number of Surviving Wheat Plants,"[3]; wheat population W14 ('Vanna'/'Zak'), 2 percent aqueous glyphosate, 6 hours soak",0
same,Number of Surviving Wheat Plants,"[3]; wheat population W15 ('Zak'/'BZ698-41'), 2 percent aqueous glyphosate, 6 hours soak",4
